From PMC5218480 (PLoS ONE, 2017)

Tested on: MV-4-11 cells
Assay: Gene expression microarray analysis (Affymetrix PrimeView) and GSEA
Format: cell-based, human
Set-up: RFU PODN (11730768_x_at) / Fold change /veh PODN (11730768_x_at) / RFU LINC00158 (11744669_a_at) / Fold change /veh LINC00158 (11744669_a_at) / RFU DUSP10 (11751237_a_at) / Fold change /veh DUSP10 (11751237_a_at) / RFU ID3 (11757404_x_at) / Fold change /veh ID3 (11757404_x_at) / RFU PLEKHG5 (11737974_s_at) / Fold change /veh PLEKHG5 (11737974_s_at) / RFU LRRC4B (11730491_at) / Fold change /veh LRRC4B (11730491_at) / RFU GIMAP4 (11747438_a_at) / Fold change /veh GIMAP4 (11747438_a_at) / RFU KRT8 (11758183_x_at) / Fold change /veh KRT8 (11758183_x_at) / RFU CNN1 (11734310_a_at) / Fold change /veh CNN1 (11734310_a_at) / RFU VPS37D (11726825_at) / Fold change /veh VPS37D (11726825_at) / RFU C10orf10 (11716522_x_at) / Fold change /veh C10orf10 (11716522_x_at) / RFU KIR2DL2 /// KIR2DL4 /// KIR2DL5A /// KIR2DL5B /// KIR2DS1 /// KIR2DS2 /// KIR2DS3 /// KIR2DS4 /// KIR3DL3 /// KIR3DL3 /// KIR3DS1 (11738374_at) / Fold change /veh KIR2DL2 /// KIR2DL4 /// KIR2DL5A /// KIR2DL5B /// KIR2DS1 /// KIR2DS2 /// KIR2DS3 /// KIR2DS4 /// KIR3DL3 /// KIR3DL3 /// KIR3DS1 (11738374_at) / RFU C1QL1 (11718748_at) / Fold change /veh C1QL1 (11718748_at) / RFU TMPRSS4 (11747572_a_at) / Fold change /veh TMPRSS4 (11747572_a_at) / RFU HAMP (11756126_x_at) / Fold change /veh HAMP (11756126_x_at) / RFU RNFT2 (11725882_a_at) / Fold change /veh RNFT2 (11725882_a_at) / RFU NR4A2 (11747474_a_at) / Fold change /veh NR4A2 (11747474_a_at) / RFU ABCC12 (11746883_a_at) / Fold change /veh ABCC12 (11746883_a_at) / RFU TMEM136 (11760407_x_at) / Fold change /veh TMEM136 (11760407_x_at) / RFU CLDN22 /// WWC2 (11732394_at) / Fold change /veh CLDN22 /// WWC2 (11732394_at) / RFU HLA-DPB1 (11760878_x_at) / Fold change /veh HLA-DPB1 (11760878_x_at) / RFU SPINT1 (11716480_a_at) / Fold change /veh SPINT1 (11716480_a_at) / RFU GAP43 (11754022_s_at) / Fold change /veh GAP43 (11754022_s_at) / RFU A4GNT (11735810_at) / Fold change /veh A4GNT (11735810_at) / RFU PRB3 (11715151_x_at) / Fold change /veh PRB3 (11715151_x_at) / RFU TUBB4B (11761932_at) / Fold change /veh TUBB4B (11761932_at) / RFU CAPN14 (11732068_a_at) / Fold change /veh CAPN14 (11732068_a_at) / RFU TMCC2 (11721928_a_at) / Fold change /veh TMCC2 (11721928_a_at) / RFU IRGQ (11745062_a_at) / Fold change /veh IRGQ (11745062_a_at) / RFU FAM174B (11720279_a_at) / Fold change /veh FAM174B (11720279_a_at) / RFU TMPRSS4 (11748680_a_at) / Fold change /veh TMPRSS4 (11748680_a_at) / RFU FAM212B (11763350_a_at) / Fold change /veh FAM212B (11763350_a_at) / RFU PLEKHG5 (11743358_a_at) / Fold change /veh PLEKHG5 (11743358_a_at) / RFU ZSCAN30 (11745921_a_at) / Fold change /veh ZSCAN30 (11745921_a_at) / RFU CMKLR1 (11741424_a_at) / Fold change /veh CMKLR1 (11741424_a_at) / RFU LOC101060620 /// MAPK8IP1 (11723275_at) / Fold change /veh LOC101060620 /// MAPK8IP1 (11723275_at) / RFU SPTSSB (11747773_x_at) / Fold change /veh SPTSSB (11747773_x_at) / RFU PRSS12 (11739890_at) / Fold change /veh PRSS12 (11739890_at) / RFU BIN1 (11741810_x_at) / Fold change /veh BIN1 (11741810_x_at) / RFU WNT11 (11732464_a_at) / Fold change /veh WNT11 (11732464_a_at) / RFU C10orf10 (11716521_a_at) / Fold change /veh C10orf10 (11716521_a_at) / RFU C5orf56 (11738089_at) / Fold change /veh C5orf56 (11738089_at) / RFU CYB561 (11721691_x_at) / Fold change /veh CYB561 (11721691_x_at) / RFU ANKRD19P (11752326_a_at) / Fold change /veh ANKRD19P (11752326_a_at) / RFU OR2T12 /// OR2T33 /// OR2T8 (11738714_s_at) / Fold change /veh OR2T12 /// OR2T33 /// OR2T8 (11738714_s_at) / RFU VCAN (11748164_a_at) / Fold change /veh VCAN (11748164_a_at) / RFU JSRP1 (11732532_at) / Fold change /veh JSRP1 (11732532_at) / RFU KRTAP10-11 (11738290_x_at) / Fold change /veh KRTAP10-11 (11738290_x_at) / RFU MYO3A (11730013_a_at) / Fold change /veh MYO3A (11730013_a_at) / RFU EBF3 (11725865_a_at) / Fold change /veh EBF3 (11725865_a_at) / RFU CAMK2N1 (11719241_x_at) / Fold change /veh CAMK2N1 (11719241_x_at) / RFU C5orf56 (11738088_a_at) / Fold change /veh C5orf56 (11738088_a_at) / RFU OLFML3 (11715873_a_at) / Fold change /veh OLFML3 (11715873_a_at) / RFU LOC100653217 /// NTM (11731650_a_at) / Fold change /veh LOC100653217 /// NTM (11731650_a_at) / RFU MAPK11 (11762145_a_at) / Fold change /veh MAPK11 (11762145_a_at) / RFU FIZ1 (11724087_x_at) / Fold change /veh FIZ1 (11724087_x_at) / RFU OASL (11726364_x_at) / Fold change /veh OASL (11726364_x_at) / RFU SOX15 (11748057_x_at) / Fold change /veh SOX15 (11748057_x_at) / RFU CD79A (11719716_a_at) / Fold change /veh CD79A (11719716_a_at) / RFU HIST1H1D (11736915_at) / Fold change /veh HIST1H1D (11736915_at) / RFU CASKIN2 (11723855_a_at) / Fold change /veh CASKIN2 (11723855_a_at) / RFU LOC730098 (11760151_x_at) / Fold change /veh LOC730098 (11760151_x_at) / RFU OR4N2 (11742367_at) / Fold change /veh OR4N2 (11742367_at) / RFU PRRT2 (11749266_a_at) / Fold change /veh PRRT2 (11749266_a_at) / RFU SNX32 (11753110_a_at) / Fold change /veh SNX32 (11753110_a_at) / RFU CDHR5 (11726645_a_at) / Fold change /veh CDHR5 (11726645_a_at) / RFU RCAN1 (11760418_a_at) / Fold change /veh RCAN1 (11760418_a_at) / RFU FAM167A (11723789_a_at) / Fold change /veh FAM167A (11723789_a_at) / RFU FAM26E (11764081_at) / Fold change /veh FAM26E (11764081_at) / RFU ISYNA1 (11749810_s_at) / Fold change /veh ISYNA1 (11749810_s_at) / RFU ACY1 (11761880_at) / Fold change /veh ACY1 (11761880_at) / RFU 11764098_at / Fold change /veh 11764098_at / RFU SAMD14 (11745864_x_at) / Fold change /veh SAMD14 (11745864_x_at) / RFU NPB (11741838_a_at) / Fold change /veh NPB (11741838_a_at) / RFU TMPRSS6 (11731388_a_at) / Fold change /veh TMPRSS6 (11731388_a_at) / RFU KRTAP10-2 (11738614_at) / Fold change /veh KRTAP10-2 (11738614_at) / RFU ARHGAP8 /// PRR5-ARHGAP8 (11727945_x_at) / Fold change /veh ARHGAP8 /// PRR5-ARHGAP8 (11727945_x_at) / RFU KRTAP5-7 /// NADSYN1 (11734609_at) / Fold change /veh KRTAP5-7 /// NADSYN1 (11734609_at) / RFU RASL12 (11751679_a_at) / Fold change /veh RASL12 (11751679_a_at) / RFU CDKN2B (11736163_a_at) / Fold change /veh CDKN2B (11736163_a_at) / RFU PRF1 (11729649_at) / Fold change /veh PRF1 (11729649_at) / RFU, ZNF638 /// ZNF638-IT1 / Fold change vs veh, ZNF638 /// ZNF638-IT1 / RFU, PANK3 / Fold change vs veh, PANK3 / RFU, SH3YL1 / Fold change vs veh, SH3YL1 / RFU, ZEB2 / Fold change vs veh, ZEB2 / RFU, NRIP1 / Fold change vs veh, NRIP1 / RFU, PTTG1IP / Fold change vs veh, PTTG1IP / RFU, CAPN2 / Fold change vs veh, CAPN2 / RFU, MED14 / Fold change vs veh, MED14 / RFU, SNORA58 / Fold change vs veh, SNORA58 / RFU, C1orf63 / Fold change vs veh, C1orf63 / RFU, LRRFIP1 / Fold change vs veh, LRRFIP1 / RFU, NDUFAF7 / Fold change vs veh, NDUFAF7 / RFU, SLC12A2 / Fold change vs veh, SLC12A2 / RFU, IBTK / Fold change vs veh, IBTK / RFU, ESF1 / Fold change vs veh, ESF1 / Fold change vs veh, TMEM50B / RFU, TAOK1 / Fold change vs veh, TAOK1 / RFU, ACBD3 / Fold change vs veh, ACBD3 / RFU, TMA16 / Fold change vs veh, TMA16 / RFU, RWDD3 / Fold change vs veh, RWDD3 / RFU, BCAT1 / Fold change vs veh, BCAT1 / RFU, EDEM3 / Fold change vs veh, EDEM3 / RFU, TMEM33 / Fold change vs veh, TMEM33 / RFU, WDR75 / Fold change vs veh, WDR75 / RFU, AHCTF1 / Fold change vs veh, AHCTF1 / RFU, TFRC / Fold change vs veh, TFRC / RFU, ZDHHC17 / Fold change vs veh, ZDHHC17 / RFU, NOM1 / Fold change vs veh, NOM1 / RFU, ARL8B / Fold change vs veh, ARL8B / RFU, ZBTB11 / Fold change vs veh, ZBTB11 / RFU, TAMM41 / Fold change vs veh, TAMM41 / RFU, KIAA1704 /// LOC100996395 / Fold change vs veh, KIAA1704 /// LOC100996395 / RFU, ING1 / Fold change vs veh, ING1 / RFU, TRMT61B / Fold change vs veh, TRMT61B / RFU, FUBP3 / Fold change vs veh, FUBP3 / RFU, TP53 / Fold change vs veh, TP53 / RFU, TNKS2 / Fold change vs veh, TNKS2 / RFU, ZFP14 / Fold change vs veh, ZFP14 / RFU, ACTR2 / Fold change vs veh, ACTR2 / RFU, PPP3R1 / Fold change vs veh, PPP3R1 / RFU, PIK3R1 / Fold change vs veh, PIK3R1 / RFU, HNRNPA1 / Fold change vs veh, HNRNPA1 / RFU, RNF170 / Fold change vs veh, RNF170 / RFU, ZNF28 / Fold change vs veh, ZNF28 / RFU, RNGTT / Fold change vs veh, RNGTT / RFU, OGT / Fold change vs veh, OGT / RFU, BRD1 / Fold change vs veh, BRD1 / RFU, MARS / Fold change vs veh, MARS / RFU, ZNF655 / Fold change vs veh, ZNF655 / RFU, FAHD1 / Fold change vs veh, FAHD1 / RFU, BDP1 / Fold change vs veh, BDP1 / RFU, LRRCC1 / Fold change vs veh, LRRCC1 / RFU, ARID1A / Fold change vs veh, ARID1A / RFU, ZNF146 / Fold change vs veh, ZNF146 / RFU, ZNF330 / Fold change vs veh, ZNF330 / RFU, GPN3 / Fold change vs veh, GPN3 / RFU, C9orf123 / Fold change vs veh, C9orf123 / RFU, N4BP2L2 / Fold change vs veh, N4BP2L2 / RFU, ARFIP1 / Fold change vs veh, ARFIP1 / RFU, FAM179B / Fold change vs veh, FAM179B / RFU, BCL10 / Fold change vs veh, BCL10 / RFU, UHRF1BP1L / Fold change vs veh, UHRF1BP1L / RFU, BET1 / Fold change vs veh, BET1 / RFU, CNOT2 / Fold change vs veh, CNOT2 / RFU, ZNF268 / Fold change vs veh, ZNF268 / Fold change vs veh, ZNF507 / RFU, DGCR2 / Fold change vs veh, DGCR2 / RFU, WDSUB1 / Fold change vs veh, WDSUB1 / Fold change vs veh, HSP90B1 /// MIR3652 / RFU, ADSS / Fold change vs veh, ADSS / RFU, GK / Fold change vs veh, GK / RFU, ZNF148 / Fold change vs veh, ZNF148 / RFU, TAF9 / Fold change vs veh, TAF9 / RFU, SLC1A5 / Fold change vs veh, SLC1A5 / RFU, SLMO2 / Fold change vs veh, SLMO2 / RFU, ABCC4 / Fold change vs veh, ABCC4 / RFU, LOC101060439 /// RAP1B / Fold change vs veh, LOC101060439 /// RAP1B / RFU, RFX7 / Fold change vs veh, RFX7 / RFU, GTPBP10 / Fold change vs veh, GTPBP10 / RFU, CNEP1R1 / Fold change vs veh, CNEP1R1 / RFU, BIVM-ERCC5 /// ERCC5 / Fold change vs veh, BIVM-ERCC5 /// ERCC5 / RFU, ILF3 / Fold change vs veh, ILF3 / RFU 11762660_at / Fold change /veh 11762660_at / RFU VCAN (11757783_s_at) / Fold change /veh VCAN (11757783_s_at) / RFU DDX43 (11728927_at) / Fold change /veh DDX43 (11728927_at) / RFU KRT8 (11758188_x_at) / Fold change /veh KRT8 (11758188_x_at) / RFU NKD1 (11759106_at) / Fold change /veh NKD1 (11759106_at) / RFU SRD5A1 (11742802_a_at) / Fold change /veh SRD5A1 (11742802_a_at) / RFU TPSAB1 /// TPSB2 (11721975_s_at) / Fold change /veh TPSAB1 /// TPSB2 (11721975_s_at) / RFU GSTM3 (11746129_a_at) / Fold change /veh GSTM3 (11746129_a_at) / RFU IL23R (11737362_x_at) / Fold change /veh IL23R (11737362_x_at) / RFU TMEM51 (11727254_a_at) / Fold change /veh TMEM51 (11727254_a_at) / RFU PIWIL2 (11732686_x_at) / Fold change /veh PIWIL2 (11732686_x_at) / RFU ORM1 (11744905_x_at) / Fold change /veh ORM1 (11744905_x_at) / RFU CCDC152 (11743942_at) / Fold change /veh CCDC152 (11743942_at) / RFU ECM1 (11717891_a_at) / Fold change /veh ECM1 (11717891_a_at) / RFU IL23R (11748794_a_at) / Fold change /veh IL23R (11748794_a_at) / RFU TNFAIP8L3 (11732012_x_at) / Fold change /veh TNFAIP8L3 (11732012_x_at) / RFU MBOAT4 (11741988_at) / Fold change /veh MBOAT4 (11741988_at) / RFU 11764193_at / Fold change /veh 11764193_at / RFU TMEM53 (11763286_at) / Fold change /veh TMEM53 (11763286_at) / RFU MAGEB2 (11727129_at) / Fold change /veh MAGEB2 (11727129_at) / RFU TMEM200A (11744735_a_at) / Fold change /veh TMEM200A (11744735_a_at) / RFU CCDC152 (11751479_a_at) / Fold change /veh CCDC152 (11751479_a_at) / RFU FAM211A (11726209_a_at) / Fold change /veh FAM211A (11726209_a_at) / RFU RGS16 (11746705_a_at) / Fold change /veh RGS16 (11746705_a_at) / RFU VCAN (11755009_s_at) / Fold change /veh VCAN (11755009_s_at) / RFU RHOB (11743442_s_at) / Fold change /veh RHOB (11743442_s_at) / RFU RGS16 (11720943_a_at) / Fold change /veh RGS16 (11720943_a_at) / RFU RGS16 (11720944_at) / Fold change /veh RGS16 (11720944_at) / RFU, VPS4B / Fold change vs veh, VPS4B / RFU, CREB1 / Fold change vs veh, CREB1 / RFU, DNAJC13 / Fold change vs veh, DNAJC13 / RFU, GNAQ / Fold change vs veh, GNAQ / RFU, CDK5R1 / Fold change vs veh, CDK5R1 / RFU, ZRANB3 / Fold change vs veh, ZRANB3 / RFU, CUL4A / Fold change vs veh, CUL4A / RFU, CCNY / Fold change vs veh, CCNY / RFU, UFL1 / Fold change vs veh, UFL1 / RFU, COG3 / Fold change vs veh, COG3 / RFU, DIAPH2 / Fold change vs veh, DIAPH2 / RFU, SKA2 / Fold change vs veh, SKA2 / RFU, AFF3 / Fold change vs veh, AFF3 / RFU, LMF1 / Fold change vs veh, LMF1 / RFU, IPO11 / Fold change vs veh, IPO11 / RFU, DFFB / Fold change vs veh, DFFB / RFU, FOXP1 / Fold change vs veh, FOXP1 / RFU, CARD8 / Fold change vs veh, CARD8 / RFU, STRN3 / Fold change vs veh, STRN3 / RFU, ADK / Fold change vs veh, ADK / RFU, RASSF2 / Fold change vs veh, RASSF2 / RFU, WIPF1 / Fold change vs veh, WIPF1 / RFU, LARP1B / Fold change vs veh, LARP1B / RFU, RASA1 / Fold change vs veh, RASA1 / RFU, RB1 / Fold change vs veh, RB1 / RFU, PPFIA1 / Fold change vs veh, PPFIA1 / RFU, MAT2A / Fold change vs veh, MAT2A / RFU, CCT5 / Fold change vs veh, CCT5 / RFU, WDR92 / Fold change vs veh, WDR92 / RFU, CUX1 / Fold change vs veh, CUX1 / RFU, TTC7A / Fold change vs veh, TTC7A / RFU, TMEM135 / Fold change vs veh, TMEM135 / RFU, DEPTOR / Fold change vs veh, DEPTOR / RFU, CPM / Fold change vs veh, CPM / RFU, DNAJB6 / Fold change vs veh, DNAJB6 / RFU, CACNA2D3 / Fold change vs veh, CACNA2D3 / RFU, DTX4 / Fold change vs veh, DTX4 / RFU, TFCP2 / Fold change vs veh, TFCP2 / RFU, GMCL1 /// GMCL1P1 / Fold change vs veh, GMCL1 /// GMCL1P1 / RFU, AEBP2 / Fold change vs veh, AEBP2 / RFU, SNHG1 /// SNORD22 /// SNORD25 /// SNORD26 /// SNORD27 /// SNORD28 /// SNORD29 /// SNORD31 / Fold change vs veh, SNHG1 /// SNORD22 /// SNORD25 /// SNORD26 /// SNORD27 /// SNORD28 /// SNORD29 /// SNORD31 / Fold change (Aza/veh), C12orf56 (ProbeSet 11735607_a_at) / Fold change (ACY-1035/veh), C12orf56 (ProbeSet 11735607_a_at) / Fold change (Aza/veh), FGFR1OP (ProbeSet 11751329_s_at) / Fold change (ACY-1035/veh), FGFR1OP (ProbeSet 11751329_s_at) / Fold change (Aza/veh), VPS36 (ProbeSet 11739960_a_at) / Fold change (ACY-1035/veh), VPS36 (ProbeSet 11739960_a_at) / RFU SYPL1 (11715823_x_at) / Fold change /veh SYPL1 (11715823_x_at) / RFU IGFBP7 (11715501_s_at) / Fold change /veh IGFBP7 (11715501_s_at) / RFU REEP3 (11722064_at) / Fold change /veh REEP3 (11722064_at) / RFU IGLL1 (11728026_x_at) / Fold change /veh IGLL1 (11728026_x_at): dose or concentration left out as unconfirmed
Details: MV-4-11 cells, 48 hours

## Nc1ncn([C@@H]2O[C@H](CO)[C@@H](O)[C@H]2O)c(=O)n1 [azacitidine]
  RFU FAM26E (11764081_at): 5.32 RFU
